Data reported in patent US20140275090A1, “BILE ACID RECYCLING INHIBITORS FOR TREATMENT OF PRIMARY SCLEROSING CHOLANGITIS AND INFLAMMATORY BOWEL DISEASE” (Lumena Pharmaceuticals, Inc., priority 2013, published 2014).

Assays:
[1] = Systemic exposure of LUM001 in patients under 18 years (study NB-00-02-014); assay type: in vivo, human; details: QD, day eight
Method: LUM001 has been administered to forty patients under the age of 18 years old. […] The drug was administered once-a-day (QD) in the morning for fourteen days. […] These doses are similar to those using to treat patients with PSC-IBD or PSC.

[2] = Open-label single-dose [14C]LUM001 oral solution study: radioactivity in plasma, whole blood, urine, feces; assay type: in vivo, human; details: for Radioactive Concentration, Plasma / Radioactive Concentration, Whole Blood: 5 mg [14C]LUM001 oral solution
Method: This was an open-label, one-period, single-dose study of a [^14C]LUM001 oral solution. Eight healthy male subjects received an oral solution of 5 mg [^14C]LUM001 (containing approximately […] per dose). Blood samples were collected at predose and for 72 hours postdose, urine samples were collected predose and for 168 hours postdose and feces were collected predose and for 216 hours postdose. Plasma, whole blood, urine and fecal samples were analyzed for total radioactivity, and selected fecal samples were analyzed for LUM001 and relevant metabolite concentrations. In addition, metabolic profiles in selected fecal samples were obtained using high performance liquid radio chromatography (HPLRC).

[3] = Toxicokinetics of LUM001 free form, 13-week oral capsule toxicity study in dogs; assay type: in vivo, Beagle dog; details: 13-wk dog capsule, 20 mg/kg
Method: Six- to seven-month old Beagle dogs of body weights of 4.9-9.5 kg (4/sex/group) orally via capsules at 0, 5, 20 or 100 mg/kg for 13 consecutive weeks. Plasma levels of LUM001 (free form) were evaluated on Days 1 and 91. LUM001 was administered by once daily oral gelatin capsules. […] therefore, 105% of a stated dose is given to provide the appropriate amount of compound for dosing. On study Day 1 and Day 91, approximately 2 mL of venous blood was collected in heparinized tubes from the cephalic vein of each animal at 1, 2, 3, 5, 8, and 24 hours post-dose. Blood collection tubes were mixed and placed on ice during the collection period after which they were centrifuged and the plasma was harvested into cryotubes within approximately 60 minutes of blood collection. Plasma samples were stored at approximately −70° C. or lower until analyzed.
The concentration of LUM001 free form in plasma were determined using an LC/MS/MS method. The assay sensitivity was 5.00 ng/mL for a 100 mL sample.

[4] = Toxicokinetics of LUM001 free form, 13-week oral gavage toxicity study in rats; assay type: in vivo; details: plasma; rat, after IV administration of 3 mg/kg; read-out: AUC(0-24 h)

## CCCCC1(CCCC)CS(=O)(=O)c2ccc(N(C)C)cc2[C@@H](c2ccc(OCc3ccc(C[N+]45CCN(CC4)CC5)cc3)cc2)[C@H]1O [LUM001]
[1]
  systemic exposure: minimally absorbed
[2]; 0.5 hr
  Radioactive Concentration, Plasma: BLQ
[2]; 1 hr
  Radioactive Concentration, Plasma: BLQ
  Radioactive Concentration, Whole Blood: 0.000 ng equivalents/g
[2]; 1.5 hr
  Radioactive Concentration, Plasma: BLQ
[2]; 2 hr
  Radioactive Concentration, Plasma: BLQ
[2]; 2.5 hr
  Radioactive Concentration, Plasma: BLQ
[2]; 3 hr
  Radioactive Concentration, Plasma: BLQ
[2]; 4 hr
  Radioactive Concentration, Plasma: BLQ
  Radioactive Concentration, Whole Blood: 0.000 ng equivalents/g
[2]; 6 hr
  Radioactive Concentration, Plasma: BLQ
[2]; 8 hr
  Radioactive Concentration, Plasma: BLQ
[2]; 12 hr
  Radioactive Concentration, Plasma: BLQ
[2]; 16 hr
  Radioactive Concentration, Plasma: 0.000 ng equivalents/mL
[2]; 24 hr
  Radioactive Concentration, Plasma: BLQ
[2]; 36 hr
  Radioactive Concentration, Plasma: 0.000 ng equivalents/mL
[2]; 48 hr
  Radioactive Concentration, Plasma: BLQ
[2]; 60 hr
  Radioactive Concentration, Plasma: BLQ
[2]; 72 hr
  Radioactive Concentration, Plasma: BLQ
[2]; −0.5 hr
  Radioactive Concentration, Whole Blood: 0.000 ng equivalents/g
[2]; analyte in feces, mean
  Percent of Dose: 65.0 ± 3.1%
[2]; radioactivity
  Cumulative % of Total Dose, Total (Urine and Feces): 72.532%
[2]; radioactivity, 0-2 hr
  Cumulative % of Total Dose, Urine: 0.005%
[2]; radioactivity, 0-24 hr
  Cumulative % of Total Dose, Feces: 30.376%
[2]; radioactivity, 2-4 hr
  Cumulative % of Total Dose, Urine: 0.012%
[2]; radioactivity, 4-8 hr
  Cumulative % of Total Dose, Urine: 0.028%
[2]; radioactivity, 8-12 hr
  Cumulative % of Total Dose, Urine: 0.041%
[2]; radioactivity, 12-24 hr
  Cumulative % of Total Dose, Urine: 0.058%
[2]; radioactivity, 24-48 hr
  Cumulative % of Total Dose, Feces: 49.878%
  Cumulative % of Total Dose, Urine: 0.057%
[2]; radioactivity, 48-72 hr
  Cumulative % of Total Dose, Feces: 67.630%
  Cumulative % of Total Dose, Urine: 0.062%
[2]; radioactivity, 72-96 hr
  Cumulative % of Total Dose, Feces: 69.653%
  Cumulative % of Total Dose, Urine: 0.063%
[2]; radioactivity, 96-120 hr
  Cumulative % of Total Dose, Feces: 71.606%
  Cumulative % of Total Dose, Urine: 0.063%
[2]; radioactivity, 120-144 hr
  Cumulative % of Total Dose, Feces: 71.771%
  Cumulative % of Total Dose, Urine: 0.064%
[2]; radioactivity, 144-168 hr
  Cumulative % of Total Dose, Feces: 71.815%
  Cumulative % of Total Dose, Urine: 0.066%
[2]; radioactivity, 168-192 hr
  Cumulative % of Total Dose, Feces: 71.885%
[2]; radioactivity, 192-216 hr
  Cumulative % of Total Dose, Feces: 71.885%
[2]; radioactivity, incl. Toilet Paper (cumulative recovery from first five fecal samples)
  Cumulative % of Total Dose, Feces: 72.466%
[3]; Day 1, Comb
  Cmax: 25.1 ng/mL
[3]; Day 91, F
  Cmax: 25.0 ng/mL
[4]
  AUC(0-t): 4320 ng·h/mL
